Data on 11 compounds can be found in patent publication US5268361A, “Hydroxyazido derivatives and related compounds as renin inhibitors” (SRI International, priority 1991, dated 1993).

Experiment [1] deals with T1, human kidney renin (Homo sapiens, UniProt P00797).
T1 construct: 0.24 mGU human kidney renin; from tissue; host or cells: human kidney
T1 sequence (P00797 67-406): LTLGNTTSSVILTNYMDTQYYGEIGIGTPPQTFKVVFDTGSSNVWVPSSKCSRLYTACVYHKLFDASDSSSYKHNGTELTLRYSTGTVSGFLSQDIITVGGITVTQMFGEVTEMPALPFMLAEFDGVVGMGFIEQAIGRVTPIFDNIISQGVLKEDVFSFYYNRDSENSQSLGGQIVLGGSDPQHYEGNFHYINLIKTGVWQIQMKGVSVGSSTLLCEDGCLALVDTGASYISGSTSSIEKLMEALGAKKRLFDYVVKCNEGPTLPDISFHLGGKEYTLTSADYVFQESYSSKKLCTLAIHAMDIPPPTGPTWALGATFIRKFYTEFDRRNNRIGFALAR
The experiment can be described thus: Human renin enzyme assay with angiotensin I radioimmunoassay. In kind it is biochemical. The conditions noted are these: angiotensinogen substrate, pH 6.0 maleate buffer, 37° C., 50% reduction in the release of angiotensin I. The protocol:
a. Human Renin Enzyme Assay. The human renin enzyme assay described by Sham et al., J. Med. Chem. 31:284-295 (1988) was carried out by mixing 0.24 mGU human kidney renin, 0.21 αμM of angiotensinogen in 0.135 M, pH 6.0, maleate buffer containing 3 mM EDTA, 1.4 mM PMSF, and 0.44% BSA. The total assay volume was 100 μl. All inhibitors were dissolved in DMSO first and diluted with 0.5% BSA to give the appropriate concentrations for testing. The final DMSO concentration in the assay mixture was kept constant at 1%. […] For assay, 90 μl of the above-mentioned maleate buffer containing the renin and inhibitor was preincubated at 37° C. for 5 min and the reaction was continued for 10 additional min after adding 10 μl of substrate. The reaction was stopped by immersion of all tubes in a dry ice acetone-methanol bath. All samples were thawed to 0.4° C. and an aliquot from each tube was taken for the Angiotensin I RIA assay.
b. Angiotensin I Radioimmunoassay. A 100 μl portions of 5% BSA containing a small aliquot of the above enzyme mixture was mixed with 100 μl of angiotensin I [^125 I] (500 mCi/mg) in 0.1M Tris-acetate buffer, pH 7.4 (one part angiotensin I in 50 parts buffer), and 500 μl of antiserum (the lyophilized powder was reconstituted with 125 ml of 0.1M Tris-acetate buffer, pH 7.4). The mixture was incubated at 4° C. for 18 to 24 h. At the end of the incubation, 1.0 mL of charcoal suspension (600 mg of charcoal in 50 mL of 0.1M Tris-acetate buffer, pH 7.4) was pipetted into each tube. The charcoal suspension was stirred constantly during the transfer. The samples were mixed and then centrifuged at 3000×g for 15 min. The supernatants were transferred into properly numbered tubed for gamma counting.
A reagent blank was carried out with each assay. The blank tube contained 100 μl of 5% bovine serum albumin (BSA), 100 μl of angiotensin I [^125 I], and 500 μl of 0.1M Tris-acetate buffer.
A standard curve was prepared with each set of experiments by mixing various amounts (5 to 0.1 ng/ml) of angiotensin I in 0.1M Tris-acetate buffer containing 5% BSA and the same amounts of ^125 I-angiotensin I and antiserum as for the RIA assay. The tubes containing the standards were treated exactly like those containing the samples. The amount of angiotensin I produced by the enzyme in each sample was calculated using an angiotensin I standard curve.
The whole process of RIA was carried out at 0° to 4° C. to avoid deterioration of antiserum and angiotensin I. Only polystyrene tubes were used. Polystyrene tubes had shown no affinity for antibody under the assay conditions described above.
An IC50 was calculated for each inhibitor tested by conducting the assay in the presence of different concentrations of inhibitor. The inhibitor concentration that caused a 50% reduction in the release of angiotensin I when compared to control (no inhibitor) values was then calculated.

The conditions of experiment [2]: animals; from cited publications; cited from earlier work.
Experiment [3] deals with Cynomolgus monkeys. The experiment in a line: In vivo efficacy: oral administration to Cynomolgus monkeys, blood pressure monitoring. As to conditions: salt-depleted, furosemide-pretreated male Cynomolgus monkeys; oral gavage 1.0 mg/kg. The procedure:
b. In vivo efficacy: Oral activity of a number of the compounds of the invention was established by administration to Cynomolgus monkeys, a species known to be susceptible to the antihypertensive effect of renin inhibition. Two male monkeys, young adults approximately 3-6 kg at dosing, were tested over a six-week period. The animal room environment and photoperiod were controlled (temperature approximately 24° C., humidity 50±20%, 12 h light, 12 h dark), as was diet (low salt primate chow, plus discretionary supplements of fruit for at least 7 days prior to dosing). A diuretic (furosemide 1 mg/kg) was given daily by intravenous injection for 7 days prior to dosing.
The compounds of the invention were dissolved in 0.02 N HCl and prepared to the appropriate volume with sterile water. The pH of the solutions were adjusted to approximately 4.0 with 0.02 N NaOH. The solutions were then given orally by an oesophageal gavage at a dose level of 1.0 mg/kg, and a dose volume of 2 mL/kg body weight.
Prior to and following dosing, the animals were connected to an ECG and blood pressure monitor. Systolic, diastolic and mean blood pressure as well as heart rate were measured at 30 second intervals and recorded.

Consider `CC(C)C[C@H](N=[N+]=[N-])[C@H](O)[C@H](CC1CCCCC1)NC(=O)[C@H](Cc1c[nH]cn1)NC(=O)[C@H](Cc1ccccc1)NC(=O)CC(C)(C)N` [IX-6], for which half-maximal inhibition in experiment [1] (IC50) was put at 5.4 nM.
Still for that read-out and setting: for `CC(C)CC(N=[N+]=[N-])C(O)[C@H](CC(C)C)NC(=O)[C@H](Cc1c[nH]cn1)NC(=O)[C@H](Cc1cccc2ccccc12)NC(=O)OCc1ccccc1` (stereo partly drawn) [Compound I-5b, 4-Azido-6-(S)-[N^α -[N-benzyloxycarbonyl-3-(1-naphthyl)-L-alanyl]-L-histidyl]-amino-2,8-dimethyl-5-nonanol] the value was 190 nM.
As to `COc1ccc(C[C@H](NC(=O)CC(C)(C)N)C(=O)N[C@@H](Cc2cnc[nH]2)C(=O)N[C@@H](CC2CCCCC2)[C@@H](O)[C@@H](O)CC(C)C)cc1` [Compound A-64662], in experiment [2], the Oral activity result is reported as “orally active in animals”.
As for `CC(C)C[C@H](N=[N+]=[N-])[C@H](O)[C@H](CC1CCCCC1)NC(=O)[C@H](Cc1c[nH]cn1)NC(=O)[C@H](Cc1ccccc1)OC(=O)N1CCOCC1` [IV-7, (4S, 5R, 6S)-4-Azido-7-cyclohexyl-5-hydroxy-2-methyl-6-[N^α -(2S-(morpholino-N-carbonyloxy)-3-phenylpropionyl)-L-histidyl]aminoheptane], the “Reduction in blood pressure” value in experiment [3] is on record as “Reduction in blood pressure was seen within approximately 1 to 6 hours”. In experiment [1], the IC50 (as a rule, the concentration at which inhibition is half-maximal) is 1.7 nM.
`CC(C)CC(N=[N+]=[N-])C(=O)C(CC1CCCCC1)NC(=O)[C@H](Cc1c[nH]cn1)NC(=O)[C@H](Cc1ccccc1)OC(=O)N1CCOCC1` (stereo partly drawn) [VII-2, 4-Azido-7-cyclohexyl-2-methyl-5-oxo-6-[N^α -(2S-(morpholino-N-carbonyloxy)-3-phenylpropionyl)-L-histidyl]amino heptane] showed a concentration for half-maximal inhibition (IC50) in experiment [1] of 5.1 nM.
In experiment [1], `CC(C)C[C@H](N=[N+]=[N-])[C@H](O)[C@H](CC1CCCCC1)NC(=O)[C@H](Cc1c[nH]cn1)NC(=O)/C(=C/c1ccccc1)CC(=O)N1CCOCC1` [VIII-3, (4S, 5R, 6S)-4-Azido-7-cyclohexyl-5-hydroxy-2-methyl-6-[N^α -[(E)-2-[(4-morphorinylcarbonyl)-methyl]cinnamyl]-L-histidyl]aminoheptane] yielded a 50% inhibitory concentration (IC50) of 0.85 nM.
On to `CC(C)C[C@H](N=[N+]=[N-])[C@H](O)[C@H](CC1CCCCC1)NC(=O)[C@H](Cc1c[nH]cn1)NC(=O)C(CC(=O)N1CCOCC1)Cc1ccccc1` (stereo partly drawn) [VI-6b, (4S, 5R, 6S)-4-Azido-6-[N^α -(2-benzyl-3-(morpholino-N-carbonyl)propionyl)-L-histidyl]amino-7-cyclohexyl-5-hydroxy-2-methylheptane], for which half-maximal inhibition in experiment [1] (IC50) required 0.64 nM.
The same measure, in the same setting: with `CC(C)C[C@H](N=[N+]=[N-])[C@H](O)[C@H](CC(C)C)NC(=O)[C@H](Cc1c[nH]cn1)NC(=O)[C@H](Cc1ccccc1)OC(=O)N1CCOCC1` [III-6, (4S, 5R, 6S)-4-Azido-5-hydroxy-2,8-dimethyl-6-[N^α -(2S-(morpholino-N-carbonyloxy)-3-phenylpropionyl)-L-histidyl]aminononane] the figure was 110 nM; with `CC(C)C[C@H](N=[N+]=[N-])[C@H](O)[C@H](CC1CCCCC1)NC(=O)[C@H](Cc1c[nH]cn1)NC(=O)[C@H](Cc1ccccc1)NC(=O)N1CCOCC1` [Compound V-4, (4S, 5R, 6S)-4-Azido-7-cyclohexyl-5-hydroxy-2-methyl-6-[N^α -(N-(morpholino-N-carbonyl)L-phenylalanyl)-L-histidyl]aminoheptane], 0.58 nM.
For the compound `CC(C)C[C@H](N=[N+]=[N-])[C@H](O)[C@H](CC1CCCCC1)NC(=O)[C@H](Cc1c[nH]cn1)NC(=O)[C@H](Cc1ccccc1)CS(=O)(=O)C(C)(C)C` [Compound X-2b, (4S, 5R, 6S)-4-Azido-7-cyclohexyl-5-hydroxy-2-methyl-6-[N^α -[(S)-2-benzyl-3-(tert-butylsulfonyl)-pripionyl]-L-histidyl]aminoheptane], the “Reduction in blood pressure” value in experiment [3] is reported as “Reduction in blood pressure was seen within approximately 1 to 6 hours”. It took 0.006 nM to reach half-maximal inhibition in experiment [1] (IC50).
Take `COCCOCCN(C)C(=O)C[C@@H](Cc1ccccc1)C(=O)N[C@@H](Cc1c[nH]cn1)C(=O)N[C@@H](CC1CCCCC1)[C@@H](O)[C@H](CC(C)C)N=[N+]=[N-]` [XI-2]: the IC50 in experiment [1] came to 0.008 nM.
